Source: US11865158B2, “Process and composition matter of nanoparticle formulation for systemic treatment of sepsis” (PURDUE RESEARCH FOUNDATION, priority 2019, dated 2024)

Experiments:
[1] = tested on: LPS-induced NF-kB/AP-1 activation in THP1-XBlue-MD2-CD14 cells; assay: In vitro anti-LPS activity, SEAP reporter assay, LPS added simultaneously with treatment; format: cell-based, human; conditions: 10 ng/mL LPS, free PMB at 150 μg/mL
Method: To investigate if D-TZP can neutralize LPS, a reporter cell line responding to LPS was incubated with LPS and free PMB or D-TZP's (with different amounts of PMB). THP1-XBlue-MD2-CD14, derived from the human monocytic THP-1 cell line, overexpresses MD2 and CD14 to amplify the response to TLR4 agonist LPS. Color change of the Quanti-Blue reagent (NF-kB/AP-1-inducible secreted embryonic alkaline phosphatase (SEAP) reporter protein) reflects NF-kB/AP-1 activation due to LPS. LPS-induced SEAP production was measured at 620 nm. The reporter cells with 10 ng/mL of LPS expressed a high level of SEAP as compared to non-challenged cells. […] A supernatant was obtained from each mixture to separate unbound LPS and added to THP1-XBlue-MD2-CD14 cells.
In vitro anti-LPS activity. Five microliters of LPS ([…]) was mixed with 15 μL of free PMB, D-TZP, or TZP at different concentrations in a flat-bottom 96-well plate. THP1-XBlue-MD2-CD14 cell suspension (10^5 cells in 180 μL) was then added to the mixtures. After 24 h incubation, cells were centrifugated at 233 rcf for 5 min. Twenty microliters of the cell medium was mixed with the Quanti-Blue reagent. After 2 h incubation, the color was measured at 620 nm by a Spectra Max M3 microplate reader (Molecular Devices, Sunnyvale, CA). […] The medium was analyzed in the same manner as above.

[2] = tested on: J774a.1 macrophages; assay: Effect on cell membrane, confocal microscopy with wheat germ agglutinin; format: cell-based; conditions: eq. to 150 μg/mL PMB, 12 h
Method: Effect of PMB and D-TZP on cell membrane. The effect of D-TZP on J774A.1 cell membrane was monitored by two methods (scanning electron microscopy and confocal microscopy). For scanning electron microscopy, J774A.1 macrophages were plated in a 6-well plate at a density of 3×10^5 cells per well with 3 mL of complete medium. After overnight incubation at 37° C. in a 5% CO2 atmosphere, the cells were treated with either free PMB or D-TZP at a concentration equivalent to 150 μg/mL PMB for 12 h. The cells were centrifuged at 233 relative centrifugal force (rcf) for 3 min. The medium was removed, and 2.5% glutaraldehyde solution was added for fixation overnight at 4° C. The cells were then rinsed three times with water (5 min each) and incubated in 2% Osmium tetroxide for 1 h. After rinsing another three times with water (5 min each), the cells were dehydrated with a series of ethanol gradients (50%, 75%, 95%) for 10 minutes at each step. The dehydrated cells were rinsed with 100% ethanol three times for 10 minutes each time, stored in a 1:1 mixture of HMDS and ethanol in 1:1 for 30 min, and rinsed with 100% HMDS for 30 min twice. After overnight drying, the cells were placed on a carbon tape attached to an aluminum stud and coated with platinum for SEM analysis. The morphology of treated J774a.1 cells then was observed by a FEI NOVA NanoSEM scanning electron microscope (SEM). […]

[3] = tested on: C57BL/6 male mice; assay: In vivo safety; conditions: dose exceeding its LD50
Method: D-TZP was intraperitoneally (IP) or intravenously (IV) injected to C57BL/6 male mice at doses equivalent to as high as 40 mg/kg PMB and 10 mg/kg PMB, respectively, much greater than the known IP and IV LD50 values of free PMB (20 mg/kg for IP and 5 mg/kg for IV). […] Higher doses have not been tested; therefore, the maximum tolerated dose of D-TZP in each route could not be defined. […] The increased tolerated dose is consistent with the reduced in vitro toxicity of D-TZP.
In vivo safety. 6-10 week-old C57BL/6 male mice were used to evaluate the safety of D-TZP and TZP in comparison with free PMB. The treatment was administered by IP (2.5-40 mg/kg) or IV (3-10 mg/kg) injection. The body weight changes were monitored daily up to 1 week. For blood chemistry and histology analysis, blood and major organs were collected at 12 h post IV injection of vehicle (5% dextrose), free PMB, D-TZP, or TZP (all equivalent to 10 mg/kg PMB). Animals were sacrificed by CO2 asphyxiation. Blood was obtained by cardiac puncture. Major organs were fixed in 10% formalin, embedded in paraffin, sectioned, and stained with hematoxylin and eosin for histological evaluation. The samples were imaged with a Nikon 90i upright microscope. To evaluate the safety of multiple intravenous injections, 5 mg/kg PMB or 10 mg/kg PMB equivalent D-TZP was given every 2 days up to 4 times total with body weight monitoring over 2 weeks.

polymyxin B [PMB]
LPS-induced SEAP production [1]: reduced the SEAP production | cell membrane staining with wheat germ agglutinin [2]: significant membrane damage | mortality [3]: resulted in mortality
